This note sets out measurements from the OligoGym collection.

This series concerns the target MALAT1. The settings on record: ASO, A431, 0.005 µM.

Values joined by “and” are separate entries in the source; they are usually repeats but may differ in a detail not shown here. Identical values can stand only once. After the bases stand the sugars from the 5' end (letter, count) and the backbone: PS all phosphorothioate, else s phosphorothioate and o phosphodiester by linkage. Methylation of C is not given here. e = 2'-O-(2-methoxyethyl) (MOE); k = constrained ethyl (cEt); d = 2'-deoxy (DNA)

Regarding ATAAGGACAGCTAAGA (sugars k3 d10 k3, PS), the target mRNA inhibition was found to be 8%. To CCTTCGGTGCCTTTAG (sugars k3 d10 k3, PS) belongs 12%; to AAGGCTCGATGGAAAA (sugars k3 d10 k3, PS), 7%. In the case of CAAACTTGCCATCTAC (sugars k3 d10 k3, PS) it was 11%. Take TCCCCAATGGAGGTAT (sugars k3 d10 k3, PS): the target mRNA inhibition came out at 9%. In the case of ACACTGGTTCCTGGAA (sugars k3 d10 k3, PS) it was 48%; in that of AAGTTTTCAGCAGTAG (sugars k3 d10 k3, PS), 8%; in that of CTAAACAATTACCTAA (sugars k3 d10 k3, PS), 3%.

TTCCCTATATAAGGTC (sugars k3 d10 k3, PS): the target mRNA inhibition worked out at 6%. To TATCTTAGTAACCTAT (sugars k3 d10 k3, PS) belongs 21%; to AACTGCTTGCAGTCCT (sugars k3 d10 k3, PS), 5%. As for TGACGCAATTCTCCCT (sugars k3 d10 k3, PS), the target mRNA inhibition is 33%.

For the sequence GGCAAAATGGCGGACT (sugars k3 d10 k3, PS), the target mRNA inhibition was -14%. To GCATTTACTTGCCAAC (sugars k3 d10 k3, PS) belongs 11%; to ATTGTTTCATCCTACC (sugars k3 d10 k3, PS), 22%; to CACTACCATATCCAAA (sugars k3 d10 k3, PS), 23%. In the case of GCCTCCTCCGTGTGGT (sugars k3 d10 k3, PS) it was -1%; in that of GATCATTAAGCCACTT (sugars k3 d10 k3, PS), 10%.

For CTAACTTCTGCACCAC (sugars k3 d10 k3, PS), the target mRNA inhibition came to 38%. To GCAAGTCCTCATTACT (sugars k3 d10 k3, PS) belongs 50% and 30%; to CAGACCTGAAGTCAAG (sugars k3 d10 k3, PS), 14%. For the sequence GAATCTCAGGGTTATG (sugars k3 d10 k3, PS), the target mRNA inhibition is 57% and 76%. In the case of TGGTACACCCAGTGGC (sugars k3 d10 k3, PS) it was 17%. In the case of TCAGACAAGATTCATG (sugars k3 d10 k3, PS) it was 31%. In the case of ATCACTACTCCAAGCA (sugars k3 d10 k3, PS) it was 20%; in that of TGACCCTACTGAAGAG (sugars k3 d10 k3, PS), 21%; in that of TTACACCAGTCCTTTT (sugars k3 d10 k3, PS), 37%. On to AAGCCCTCTCAGCCAC (sugars k3 d10 k3, PS), for which the target mRNA inhibition was determined as 38%. In the case of TTTACAGAAGTCTCGG (sugars k3 d10 k3, PS) it was -31%; in that of TTATTCCAGGATTAAT (sugars k3 d10 k3, PS), -5%; in that of GGCAAACGAAACATTG (sugars k3 d10 k3, PS), 35%.

Take AAACTTGCCATCTACT (sugars k3 d10 k3, PS): the target mRNA inhibition is -4%. To ACAGAGCTGCTCCCCG (sugars k3 d10 k3, PS) belongs 18%; to TATTTAAGAACTCCAC (sugars k3 d10 k3, PS), 26%; to CATTTTGCCCTTAGCT (sugars k3 d10 k3, PS), 54%. On to CCACCAATCCCAACCG (sugars k3 d10 k3, PS), for which the target mRNA inhibition was 26%. In the case of TATACTTCTCCAATAC (sugars k3 d10 k3, PS) it was 18%. In the case of CATTCTAATAGCAGCG (sugars k3 d10 k3, PS) it was 51% and 68%; in that of GTTCAAGTGGCCTTTT (sugars k3 d10 k3, PS), 22%. To TTGGCCTACTCAAGCT (sugars k3 d10 k3, PS) belongs -8%; to AGGCTCGATGGAAAAA (sugars k3 d10 k3, PS), 28%; to “TGCCTTTAGGATTCTAGACA (sugars e5 d10 e5, PS)”, 39% and 51%.

Regarding ACATAGTTCAACCCAC (sugars k3 d10 k3, PS), the target mRNA inhibition was 18%. In the case of TGAATTCAACTGGAAG (sugars k3 d10 k3, PS) it was 36%. With TGGCATATGCAGATAA (sugars k3 d10 k3, PS), the target mRNA inhibition was 69% and 89%. In the case of GTAGACCAACTAAGCG (sugars k3 d10 k3, PS) it was 26%. CCAAAGACCTCGACAC (sugars k3 d10 k3, PS): the target mRNA inhibition amounted to 13%.

For the sequence GACTGCTTAAAACTGC (sugars k3 d10 k3, PS), the target mRNA inhibition turned out to be 36%. On to AATTTATAGACCCCTG (sugars k3 d10 k3, PS), for which the target mRNA inhibition stood at 4%.

CAACACCCGGAAATCG (sugars k3 d10 k3, PS): the target mRNA inhibition amounted to 18%.

As to ATCCAAGCTACTGGCT (sugars k3 d10 k3, PS), the target mRNA inhibition worked out at 40%.

For GATAGTTCAGGGCTTT (sugars k3 d10 k3, PS), the target mRNA inhibition was 10%.

For GCAATATCTTAGTAAC (sugars k3 d10 k3, PS), the target mRNA inhibition was 23%. In the case of GCTGTCAATTAATGCT (sugars k3 d10 k3, PS) it was 24%. In the case of GTAATTACTCTTGATC (sugars k3 d10 k3, PS) it was 47%; in that of CTTCTCTAACCCAGTT (sugars k3 d10 k3, PS), 15%.

For TTCGCAGACAAAGTTT (sugars k3 d10 k3, PS), the target mRNA inhibition is 22%. As to TGCTGATAAACTCACT (sugars k3 d10 k3, PS), the target mRNA inhibition was 46%. As to TGAGAACTGCTCTAGT (sugars k3 d10 k3, PS), the target mRNA inhibition was determined as 35%. To GTTGATATTTAAGAAC (sugars k3 d10 k3, PS) belongs -15%; to GCATATGCAGATAATG (sugars k3 d10 k3, PS), 36%. AAAGCGAGTTCAAGTG (sugars k3 d10 k3, PS): the target mRNA inhibition is -12%. In the case of GCAGTTATATTAGGTT (sugars k3 d10 k3, PS) it was 15%. Turning to GATACCTGTCTGAGGC (sugars k3 d10 k3, PS), the target mRNA inhibition turned out to be 33%. As to TCCAGCATAAAGCTGA (sugars k3 d10 k3, PS), the target mRNA inhibition was -9%.

For ACATTTGGCCTACTCA (sugars k3 d10 k3, PS), the target mRNA inhibition was found to be 46%.

Take TAAGTTGGTTTTAGTC (sugars k3 d10 k3, PS): the target mRNA inhibition is 78% and 92%. As for TAAGCGAATGGCTTTG (sugars k3 d10 k3, PS), the target mRNA inhibition worked out at 7%.

Regarding TTAAATTGATGGGCTT (sugars k3 d10 k3, PS), the target mRNA inhibition turned out to be 22%.

As for GACAGACCTAAGGGAA (sugars k3 d10 k3, PS), the target mRNA inhibition worked out at 34%. In the case of AAGAGATACCTGTCTG (sugars k3 d10 k3, PS) it was 22%. Consider CCAGCAAAATGTACTC (sugars k3 d10 k3, PS), for which the target mRNA inhibition was 46%. In the case of ATCAACAAAAGCCCAC (sugars k3 d10 k3, PS) it was -12%; in that of GGTTTTATCTAAATAC (sugars k3 d10 k3, PS), 25%. To GAAGCCCCTGCGCTGG (sugars k3 d10 k3, PS) belongs 23%. To CTTTAAGCTGTTTAAG (sugars k3 d10 k3, PS) belongs -4%; to GAGTTGAGGCAAGTCC (sugars k3 d10 k3, PS), 52%. With TGGACATTGCCTCTTC (sugars k3 d10 k3, PS), the target mRNA inhibition is 29%. To GGCCTACTCAAGCTCT (sugars k3 d10 k3, PS) belongs 14%; to GATTTTTACCAACCAC (sugars k3 d10 k3, PS), 42%; to TTAATCACCTTCGGTT (sugars k3 d10 k3, PS), 27%. In the case of TTGAGGGACAGTAGGT (sugars k3 d10 k3, PS) it was 21%. For the sequence CCCCAACTAAACATAC (sugars k3 d10 k3, PS), the target mRNA inhibition came to 26%. To AACTGGGAATACTCTT (sugars k3 d10 k3, PS) belongs 22%. To CCCAATGGAGGTATGA (sugars k3 d10 k3, PS) belongs 23%; to GGTTTTAGTCACTGGA (sugars k3 d10 k3, PS), 85% and 95%; to ATTGTCTCAATTTGGC (sugars k3 d10 k3, PS), 63% and 84%. In the case of AAAGACCTCGACACCA (sugars k3 d10 k3, PS) it was 15%.

As for CCTATCTTCACCACGA (sugars k3 d10 k3, PS), the target mRNA inhibition turned out to be 6%. To AACATAGTTCAACCCA (sugars k3 d10 k3, PS) belongs 12%; to TCTATAGTCTGAAGAA (sugars k3 d10 k3, PS), 26%. In the case of CATGGAAAGCGAGTTC (sugars k3 d10 k3, PS) it was 20%; in that of TCCTCAATCCACTTGA (sugars k3 d10 k3, PS), 44%; in that of AATTAAATTGATGGGC (sugars k3 d10 k3, PS), 17%. In the case of GATTAAAGTGTGATAG (sugars k3 d10 k3, PS) it was 16%; in that of TGAACCCCGTCCTGGA (sugars k3 d10 k3, PS), 3%; in that of ACTTATCTGCGGTTTC (sugars k3 d10 k3, PS), 71% and 53%.

Regarding CTGACTTTGTATGTAA (sugars k3 d10 k3, PS), the target mRNA inhibition was 51%. With TAATGTAGTGTAACAT (sugars k3 d10 k3, PS), the target mRNA inhibition turned out to be 29%.
